Assay results from patent US20260356856A1, “KRAS G12S AND G12C INHIBITORS” (MIRATI THERAPEUTICS, INC., priority 2023, published 2026).

What was measured:
[1] = molecular target: T1, KRas-mediated phosphorylation of ERK in MKN1 cells (Homo sapiens, UniProt P01116); assay: Inhibition of KRas-mediated phosphorylation of ERK (HTRF), MKN1 cells; type: cell-based; conditions: MKN1 cells (KRas WT); HTRF pERK; 3 h incubation
T1 construct: pERK HTRF read-out
Protocol: Inhibition of KRas Phosphorylation of ERK (HTRF) by Exemplary Compounds of Formula (Ia) or (Ib)
Cisbio HTRF Advanced pERK Assay Catalog #64AERPEH • Cells: MKN1, PSN1 • Procedure: • 1. Day 1: Seed 6,000 cells/well −25 μl/well in 384-well white solid bottom plate; RPM1_10% FBS. Incubate overnight at 37 °C/5% CO2. • 2.

[2] = molecular target: T2, KRas-mediated phosphorylation of ERK in A549 cells (Homo sapiens, UniProt P01116, G12S); assay: Inhibition of KRas-mediated phosphorylation of ERK (HTRF), A549 cells; type: cell-based; conditions: HTRF pERK, 3 h incubation
T2 construct: pERK HTRF read-out

[3] = molecular target: T3, KRas WT (Homo sapiens, UniProt P01116); assay: KRas binding assay, TR-FRET displacement of Cy5 labelled tracer; conditions: 60-minute incubation at room temperature, 1% DMSO, pH 7.5
T3 construct: Biotinylated KRas (corresponding to amino acids 1-169, produced at Accelegan Inc.); biotin (biotinylated); purchased Accelegan Inc
In short: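 Final conditions: 1% DMSO, pH 7.5 HEPES buffer, 60 min, room temperature. Protein: biotin-KRas 1-169 with terbium streptavidin. Output: IC50, four-parameter fit of POC.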

[4] = molecular target: T4, KRas G12S (Homo sapiens, UniProt P01116, G12S); assay: as above; conditions: 60-minute incubation at room temperature, 1% DMSO, pH 7.5
T4 construct: Biotinylated KRas (corresponding to amino acids 1-169, produced at Accelegan Inc.); biotin (biotinylated); purchased Accelegan Inc
In short: (§1)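 Biotinylated KRas (aa 1-169) incubated with Cy5-labelled tracer, terbium streptavidin and compound (1% DMSO final) in 50 mM HEPES pH 7.5, 5 mM MgCl2, 0.005% Tween-20, 1 mM DTT. Tracer displacement read by TR-FRET after 60 min at room temperature; POC values fitted to 4-parameter IC50 equation.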

[5] = molecular target: T5, KRas G12C (Homo sapiens, UniProt P01116, G12C); assay: as above; conditions: 60-minute incubation at room temperature, 1% DMSO, pH 7.5
T5 construct: Biotinylated KRas (corresponding to amino acids 1-169, produced at Accelegan Inc.); biotin (biotinylated); purchased Accelegan Inc
In short: as §1

[6] = molecular target: T6, KRas-mediated phosphorylation of ERK in H358 cells (Homo sapiens, UniProt P01116, G12C); assay: Inhibition of KRas-mediated phosphorylation of ERK (HTRF), H358 cells; type: cell-based; conditions: HTRF pERK, 3 h incubation
T6 construct: pERK HTRF read-out
T6 sequence (P01116 1-188 isoform P01116-2 G12C): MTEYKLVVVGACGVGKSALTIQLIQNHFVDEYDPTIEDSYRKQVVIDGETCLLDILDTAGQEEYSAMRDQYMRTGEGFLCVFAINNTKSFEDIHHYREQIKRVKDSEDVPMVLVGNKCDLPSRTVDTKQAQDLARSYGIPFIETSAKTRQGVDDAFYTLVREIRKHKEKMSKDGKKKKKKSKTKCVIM

T3 sequence (P01116 1-169 isoform P01116-2): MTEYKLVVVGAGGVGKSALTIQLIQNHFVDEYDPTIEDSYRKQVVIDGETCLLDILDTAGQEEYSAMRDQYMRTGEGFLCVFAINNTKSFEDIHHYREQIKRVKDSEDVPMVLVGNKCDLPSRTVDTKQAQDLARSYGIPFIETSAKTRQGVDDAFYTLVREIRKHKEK
T5 sequence (P01116 1-169 isoform P01116-2 G12C): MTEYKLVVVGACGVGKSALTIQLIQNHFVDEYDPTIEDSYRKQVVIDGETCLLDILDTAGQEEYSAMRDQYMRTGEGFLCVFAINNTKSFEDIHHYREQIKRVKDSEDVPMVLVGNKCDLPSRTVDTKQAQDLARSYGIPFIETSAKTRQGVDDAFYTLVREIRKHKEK
T4 sequence (P01116 1-169 isoform P01116-2 G12S): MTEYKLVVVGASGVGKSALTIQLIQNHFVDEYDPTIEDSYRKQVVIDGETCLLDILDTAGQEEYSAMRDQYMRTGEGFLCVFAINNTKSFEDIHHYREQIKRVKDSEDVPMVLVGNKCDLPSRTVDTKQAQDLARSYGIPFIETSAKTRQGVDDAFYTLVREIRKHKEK
T2 sequence (P01116 1-188 isoform P01116-2 G12S): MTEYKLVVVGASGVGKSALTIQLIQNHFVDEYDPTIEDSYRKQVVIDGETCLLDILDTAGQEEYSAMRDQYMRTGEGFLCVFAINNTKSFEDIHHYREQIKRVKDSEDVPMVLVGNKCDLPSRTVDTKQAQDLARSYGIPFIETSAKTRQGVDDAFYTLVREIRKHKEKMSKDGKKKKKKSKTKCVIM
T1 sequence (P01116 1-188 isoform P01116-2): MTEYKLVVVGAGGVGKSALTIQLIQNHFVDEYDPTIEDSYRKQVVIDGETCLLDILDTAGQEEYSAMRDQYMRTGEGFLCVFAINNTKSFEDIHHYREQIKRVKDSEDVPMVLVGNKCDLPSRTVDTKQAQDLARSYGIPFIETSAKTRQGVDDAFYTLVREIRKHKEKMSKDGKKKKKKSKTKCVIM

Row | SMILES | IC50 [1] [nM] | IC50 [2] [nM] | IC50 [3] [nM] | IC50 [4] [nM] | IC50 [5] [nM] | IC50 [6] [nM]
1 | CC(C)(C)c1ccn(C(=O)C2CCCN(c3nc(OC[C@@]45CCCN4C[C@H](F)C5)nc4c(F)c(-c5ccc(F)c6sc(N)c(C#N)c56)c(Cl)cc34)CC2)n1 (stereo partly drawn) [Example 220, 2-amino-4-(4-(4-(3-(tert-butyl)-1H-pyrazole-1-carbonyl)azepan-1-yl)-6-chloro-8-fluoro-2-(((2R,7aS)-2-fluorotetrahydro-1H-pyrrolizin-7a(5H)-yl)methoxy)quinazolin-7-yl)-7-fluorobenzo[b]thiophene-3-carbonitrile] | 258 | 336 | 160 | 153 | 209 | 449
2 | CCc1c(F)ccc2cc(O)cc(-c3ncc4c(N5CCCC(C(=O)n6ccc(C)n6)CC5)nc(OCC5(CN(C)C)CC5)nc4c3F)c12 (centres unmarked) [Example 167, (1-(2-((1-((dimethylamino)methyl)cyclopropyl)methoxy)-7-(8-ethyl-7-fluoro-3-hydroxynaphthalen-1-yl)-8-fluoropyrido[4,3-d]pyrimidin-4-yl)azepan-4-yl)(3-methyl-1H-pyrazol-1-yl)methanone] | 3050 | 326 | 528 | 29 | 94 | 5100
3 | N#Cc1c(N)sc2c(F)ccc(-c3c(Cl)cc4c(N5CCN(C(=O)n6nccn6)CC5)nc(OC[C@@]56CCCN5C[C@H](F)C6)nc4c3F)c12 [Example 191, 4-(4-(4-(2H-1,2,3-triazole-2-carbonyl)piperazin-1-yl)-6-chloro-8-fluoro-2-(((2R,7aS)-2-fluorotetrahydro-1H-pyrrolizin-7a(5H)-yl)methoxy)quinazolin-7-yl)-2-amino-7-fluorobenzo[b]thiophene-3-carbonitrile] | 15 | 290 | 6 | 7 | < 2 | 1
4 | CN1CC2(CCN(c3nc(OC[C@@]45CCCN4C[C@H](F)C5)nc4c(F)c(-c5ccc(F)c6sc(N)c(C#N)c56)c(Cl)cc34)CC2)C1=O [Example 303, 2-amino-4-(6-chloro-8-fluoro-2-(((2R,7aS)-2-fluorotetrahydro-1H-pyrrolizin-7a(5H)-yl)methoxy)-4-(2-methyl-1-oxo-2,7-diazaspiro[3.5]nonan-7-yl)quinazolin-7-yl)-7-fluorobenzo[b]thiophene-3-carbonitrile] | 4 | 59 | 4 | 3 | 3 | 14
5 | CCc1c(F)ccc2cc(O)cc(-c3ncc4c(N(C)CCN(C)C(=O)n5cncn5)nc(OC[C@@]56CCCN5C[C@H](F)C6)nc4c3F)c12 [Example 223, N-(2-((7-(8-ethyl-7-fluoro-3-hydroxynaphthalen-1-yl)-8-fluoro-2-(((2R,7aS)-2-fluorotetrahydro-1H-pyrrolizin-7a(5H)-yl)methoxy)pyrido[4,3-d]pyrimidin-4-yl)(methyl)amino)ethyl)-N-methyl-1H-1,2,4-triazole-1-carboxamide] | 569 | 2390 | 164 | 53 | 42 | 17
6 | CCc1c(F)ccc2cc(O)cc(N3CCc4c(nc(OC[C@@]56CCCN5C[C@H](F)C6)nc4NCCC(=O)n4ccc(C)n4)C3)c12 [Example 195, 3-((7-(8-ethyl-7-fluoro-3-hydroxynaphthalen-1-yl)-2-(((2R,7aS)-2-fluorotetrahydro-1H-pyrrolizin-7a(5H)-yl)methoxy)-5,6,7,8-tetrahydropyrido[3,4-d]pyrimidin-4-yl)amino)-1-(3-methyl-1H-pyrazol-1-yl) propan-1-one] | 936 | 84 | 43 | 6 | 13 | 1170
7 | Cc1ccn(C(=O)CC2CN(c3nc(OC[C@@]45CCCN4C[C@H](F)C5)nc4c(F)c(-c5ccc(F)c6sc(N)c(C#N)c56)c(Cl)cc34)C2)n1 [Example 138, 2-amino-4-(6-chloro-8-fluoro-2-(((2R,7aS)-2-fluorotetrahydro-1H-pyrrolizin-7a(5H)-yl)methoxy)-4-(3-(2-(3-methyl-1H-pyrazol-1-yl)-2-oxoethyl)azetidin-1-yl)quinazolin-7-yl)-7-fluorobenzo[b]thiophene-3-carbonitrile] | 106 | 137 | 16 | 6 | 13 | 157
8 | COCC(C)OC(=O)C1CCN(c2nc(OC[C@@]34CCCN3C[C@H](F)C4)nc3c(F)c(-c4ccc(F)c5sc(N)c(C#N)c45)c(Cl)cc23)CC1 (stereo partly drawn) [Example 240, 1-methoxypropan-2-yl 1-(7-(2-amino-3-cyano-7-fluorobenzo[b]thiophen-4-yl)-6-chloro-8-fluoro-2-(((2R,7aS)-2-fluorotetrahydro-1H-pyrrolizin-7a(5H)-yl)methoxy)quinazolin-4-yl)piperidine-4-carboxylate] | 44 | 775 | 16 | 62 | 66 | 658
9 | CCc1c(F)ccc2cc(O)cc(-c3ncc4c(N5CCCCC(C(=O)n6ccc(C)n6)CC5)nc(OC[C@@]56CCCN5C/C(=C\F)C6)nc4c3F)c12 (stereo partly drawn) [Example 124, (1-(7-(8-ethyl-7-fluoro-3-hydroxynaphthalen-1-yl)-8-fluoro-2-(((S,Z)-2-(fluoromethylene)tetrahydro-1H-pyrrolizin-7a(5H)-yl)methoxy)pyrido[4,3-d]pyrimidin-4-yl)azocan-4-yl)(3-methyl-1H-pyrazol-1-yl)methanone] | 93 | 7 | 103 | 3 | 4 | 25
10 | Cc1ccn(C(=O)C2CCCN(c3nc(OCC4(CN(C)C)CC4)nc4c(F)c(-c5ccc(F)c6sc(N)c(C#N)c56)c(Cl)cc34)CC2)n1 (centres unmarked) [Example 227, 2-amino-4-(6-chloro-2-((1-((dimethylamino)methyl)cyclopropyl)methoxy)-8-fluoro-4-(4-(3-methyl-1H-pyrazole-1-carbonyl)azepan-1-yl)quinazolin-7-yl)-7-fluorobenzo[b]thiophene-3-carbonitrile] | 522 | 46 | 93 | 13 | 19 | 185
11 | CCc1c(F)ccc2cc(O)cc(-c3ncc4c(N(C)CCN(C)C(=O)n5nccn5)nc(OC[C@@]56CCCN5C[C@H](F)C6)nc4c3F)c12 (single isomer, unassigned) [Example 207] | 1390 | 6650 | 238 | 66 | 22 | 34
12 | N#Cc1c(N)sc2c(F)ccc(-c3c(Cl)cc4c(N5CCCC(C(=O)n6ccc(C7CC7)n6)CC5)nc(OC[C@@]56CCCN5C[C@H](F)C6)nc4c3F)c12 (stereo partly drawn) [Example 189, 2-amino-4-(6-chloro-4-(4-(3-cyclopropyl-1H-pyrazole-1-carbonyl)azepan-1-yl)-8-fluoro-2-(((2R,7aS)-2-fluorotetrahydro-1H-pyrrolizin-7a(5H)-yl)methoxy)quinazolin-7-yl)-7-fluorobenzo[b]thiophene-3-carbonitrile] | 199 | 27 | 24 | 8 | 13 | 43
13 | C=Cc1ccn(C(=O)C2CCN(c3nc(OC[C@@]45CCCN4C[C@H](F)C5)nc4c(F)c(-c5cc(O)cc6ccc(F)c(CC)c56)ncc34)CC2)n1 [Example 66, (1-(7-(8-ethyl-7-fluoro-3-hydroxynaphthalen-1-yl)-8-fluoro-2-(((2R,7aS)-2-fluorotetrahydro-1H-pyrrolizin-7a(5H)-yl)methoxy)pyrido[4,3-d]pyrimidin-4-yl)piperidin-4-yl)(3-vinyl-1H-pyrazol-1-yl)methanone] | 5200 | 141 | 154 | 26 | 57 | 9020
14 | CCc1c(F)ccc2cc(O)cc(-c3ncc4c(N5CC[C@H]6[C@@H](C5)[C@H]6C(=O)n5ccc(C)n5)nc(OC[C@@]56CCCN5C[C@H](F)C6)nc4c3F)c12 [Example 156, ((1R,6S,7S)-3-(7-(8-ethyl-7-fluoro-3-hydroxynaphthalen-1-yl)-8-fluoro-2-(((2R,7aS)-2-fluorotetrahydro-1H-pyrrolizin-7a(5H)-yl)methoxy)pyrido[4,3-d]pyrimidin-4-yl)-3-azabicyclo[4.1.0]heptan-7-yl)(3-methyl-1H-pyrazol-1-yl)methanone] | 2090 | 38 |  | 15 | 89 | 2350
